Test results published in patent US9624208B2, “Benzoxazolinone compounds with selective activity in voltage-gated sodium channels” (Merck Sharp & Dohme Corp., priority 2012, dated 2017).

How the values were obtained:
human Nav1.5 = biological target: T1, human Nav1.5 (Homo sapiens, UniProt Q14524); experiment: PatchXpress sodium current measurement, inactivated state block, Nav1.5; format: cell-based; details: determined by PatchXpress measurement, HEK 293 cells
T1 construct: expressed in transfected cells
T1 sequence (Q14524 whole entry): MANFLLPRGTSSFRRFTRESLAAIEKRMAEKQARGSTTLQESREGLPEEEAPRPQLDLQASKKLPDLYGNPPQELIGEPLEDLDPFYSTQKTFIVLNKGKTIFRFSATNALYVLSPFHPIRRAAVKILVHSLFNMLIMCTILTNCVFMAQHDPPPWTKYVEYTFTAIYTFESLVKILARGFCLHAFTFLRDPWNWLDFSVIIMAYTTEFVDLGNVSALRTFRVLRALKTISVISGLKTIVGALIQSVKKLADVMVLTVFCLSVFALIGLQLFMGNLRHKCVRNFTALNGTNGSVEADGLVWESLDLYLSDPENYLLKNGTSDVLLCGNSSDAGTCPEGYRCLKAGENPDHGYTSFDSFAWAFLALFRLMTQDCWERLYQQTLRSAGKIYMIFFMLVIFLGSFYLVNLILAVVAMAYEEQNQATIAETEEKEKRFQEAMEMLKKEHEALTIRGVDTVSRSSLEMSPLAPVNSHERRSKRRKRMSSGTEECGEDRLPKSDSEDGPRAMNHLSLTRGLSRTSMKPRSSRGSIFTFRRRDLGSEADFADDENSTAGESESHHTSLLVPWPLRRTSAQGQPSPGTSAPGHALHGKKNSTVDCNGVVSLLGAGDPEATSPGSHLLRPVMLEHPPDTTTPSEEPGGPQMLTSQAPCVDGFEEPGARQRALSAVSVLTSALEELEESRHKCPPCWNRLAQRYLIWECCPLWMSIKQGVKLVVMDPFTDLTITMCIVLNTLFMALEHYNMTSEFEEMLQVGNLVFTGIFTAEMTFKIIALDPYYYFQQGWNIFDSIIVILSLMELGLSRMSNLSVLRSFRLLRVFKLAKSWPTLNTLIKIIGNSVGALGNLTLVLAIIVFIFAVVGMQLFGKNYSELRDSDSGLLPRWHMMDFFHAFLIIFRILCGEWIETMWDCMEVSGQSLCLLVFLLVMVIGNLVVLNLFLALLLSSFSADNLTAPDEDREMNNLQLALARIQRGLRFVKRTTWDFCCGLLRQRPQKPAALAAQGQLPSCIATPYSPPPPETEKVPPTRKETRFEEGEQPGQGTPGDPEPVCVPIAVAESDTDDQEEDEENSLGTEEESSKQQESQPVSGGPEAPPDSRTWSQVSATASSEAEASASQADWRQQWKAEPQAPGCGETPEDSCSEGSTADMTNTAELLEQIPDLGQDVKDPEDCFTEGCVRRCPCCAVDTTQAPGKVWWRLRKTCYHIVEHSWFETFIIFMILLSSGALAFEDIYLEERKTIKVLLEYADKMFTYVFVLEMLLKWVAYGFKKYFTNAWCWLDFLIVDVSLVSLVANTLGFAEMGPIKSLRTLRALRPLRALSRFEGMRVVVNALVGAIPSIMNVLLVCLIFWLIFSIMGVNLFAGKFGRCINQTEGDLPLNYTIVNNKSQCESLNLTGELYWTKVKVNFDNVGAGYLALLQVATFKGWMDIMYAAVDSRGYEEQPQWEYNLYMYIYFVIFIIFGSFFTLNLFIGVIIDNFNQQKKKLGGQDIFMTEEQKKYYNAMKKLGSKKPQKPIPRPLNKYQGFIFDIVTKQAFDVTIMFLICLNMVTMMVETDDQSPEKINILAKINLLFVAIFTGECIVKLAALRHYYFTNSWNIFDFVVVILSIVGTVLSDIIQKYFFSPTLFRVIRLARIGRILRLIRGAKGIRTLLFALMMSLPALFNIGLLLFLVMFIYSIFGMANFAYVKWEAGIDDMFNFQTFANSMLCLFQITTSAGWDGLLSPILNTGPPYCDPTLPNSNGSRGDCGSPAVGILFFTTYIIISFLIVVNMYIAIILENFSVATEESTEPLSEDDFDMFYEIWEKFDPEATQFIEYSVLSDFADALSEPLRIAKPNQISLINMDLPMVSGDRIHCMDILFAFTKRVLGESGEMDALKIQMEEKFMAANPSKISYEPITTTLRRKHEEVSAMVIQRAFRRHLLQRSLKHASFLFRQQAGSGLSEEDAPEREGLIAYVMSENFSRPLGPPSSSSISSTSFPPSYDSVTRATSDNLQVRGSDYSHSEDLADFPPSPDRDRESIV
Outline: (§1)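 HEK293 cells stably expressing channel; automated patch clamp at 22 °C, double-pulse protocol: hold 20 mV below V½ inactivation, 8000 ms prepulse 7 mV above V½, 2 ms step to −120 mV, 20 ms test pulse to −20 mV. CsF-based internal (pH 7.3), NMDG/40 mM NaCl external (pH 7.5). Rundown-corrected % inhibition (≥2 concentrations) fitted to Hill equation for IC50.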

human Nav1.7 = biological target: T2, human Nav1.7 (Homo sapiens, UniProt Q15858); experiment: PatchXpress sodium current measurement, inactivated state block, Nav1.7; format: cell-based; details: channels stably expressed in HEK 293 cells, double-pulse protocol, 22° C., read-out: potency for the Nav 1.7 sodium ion channel (1.7=)
T2 construct: expressed in transfected cells
T2 sequence (Q15858 whole entry): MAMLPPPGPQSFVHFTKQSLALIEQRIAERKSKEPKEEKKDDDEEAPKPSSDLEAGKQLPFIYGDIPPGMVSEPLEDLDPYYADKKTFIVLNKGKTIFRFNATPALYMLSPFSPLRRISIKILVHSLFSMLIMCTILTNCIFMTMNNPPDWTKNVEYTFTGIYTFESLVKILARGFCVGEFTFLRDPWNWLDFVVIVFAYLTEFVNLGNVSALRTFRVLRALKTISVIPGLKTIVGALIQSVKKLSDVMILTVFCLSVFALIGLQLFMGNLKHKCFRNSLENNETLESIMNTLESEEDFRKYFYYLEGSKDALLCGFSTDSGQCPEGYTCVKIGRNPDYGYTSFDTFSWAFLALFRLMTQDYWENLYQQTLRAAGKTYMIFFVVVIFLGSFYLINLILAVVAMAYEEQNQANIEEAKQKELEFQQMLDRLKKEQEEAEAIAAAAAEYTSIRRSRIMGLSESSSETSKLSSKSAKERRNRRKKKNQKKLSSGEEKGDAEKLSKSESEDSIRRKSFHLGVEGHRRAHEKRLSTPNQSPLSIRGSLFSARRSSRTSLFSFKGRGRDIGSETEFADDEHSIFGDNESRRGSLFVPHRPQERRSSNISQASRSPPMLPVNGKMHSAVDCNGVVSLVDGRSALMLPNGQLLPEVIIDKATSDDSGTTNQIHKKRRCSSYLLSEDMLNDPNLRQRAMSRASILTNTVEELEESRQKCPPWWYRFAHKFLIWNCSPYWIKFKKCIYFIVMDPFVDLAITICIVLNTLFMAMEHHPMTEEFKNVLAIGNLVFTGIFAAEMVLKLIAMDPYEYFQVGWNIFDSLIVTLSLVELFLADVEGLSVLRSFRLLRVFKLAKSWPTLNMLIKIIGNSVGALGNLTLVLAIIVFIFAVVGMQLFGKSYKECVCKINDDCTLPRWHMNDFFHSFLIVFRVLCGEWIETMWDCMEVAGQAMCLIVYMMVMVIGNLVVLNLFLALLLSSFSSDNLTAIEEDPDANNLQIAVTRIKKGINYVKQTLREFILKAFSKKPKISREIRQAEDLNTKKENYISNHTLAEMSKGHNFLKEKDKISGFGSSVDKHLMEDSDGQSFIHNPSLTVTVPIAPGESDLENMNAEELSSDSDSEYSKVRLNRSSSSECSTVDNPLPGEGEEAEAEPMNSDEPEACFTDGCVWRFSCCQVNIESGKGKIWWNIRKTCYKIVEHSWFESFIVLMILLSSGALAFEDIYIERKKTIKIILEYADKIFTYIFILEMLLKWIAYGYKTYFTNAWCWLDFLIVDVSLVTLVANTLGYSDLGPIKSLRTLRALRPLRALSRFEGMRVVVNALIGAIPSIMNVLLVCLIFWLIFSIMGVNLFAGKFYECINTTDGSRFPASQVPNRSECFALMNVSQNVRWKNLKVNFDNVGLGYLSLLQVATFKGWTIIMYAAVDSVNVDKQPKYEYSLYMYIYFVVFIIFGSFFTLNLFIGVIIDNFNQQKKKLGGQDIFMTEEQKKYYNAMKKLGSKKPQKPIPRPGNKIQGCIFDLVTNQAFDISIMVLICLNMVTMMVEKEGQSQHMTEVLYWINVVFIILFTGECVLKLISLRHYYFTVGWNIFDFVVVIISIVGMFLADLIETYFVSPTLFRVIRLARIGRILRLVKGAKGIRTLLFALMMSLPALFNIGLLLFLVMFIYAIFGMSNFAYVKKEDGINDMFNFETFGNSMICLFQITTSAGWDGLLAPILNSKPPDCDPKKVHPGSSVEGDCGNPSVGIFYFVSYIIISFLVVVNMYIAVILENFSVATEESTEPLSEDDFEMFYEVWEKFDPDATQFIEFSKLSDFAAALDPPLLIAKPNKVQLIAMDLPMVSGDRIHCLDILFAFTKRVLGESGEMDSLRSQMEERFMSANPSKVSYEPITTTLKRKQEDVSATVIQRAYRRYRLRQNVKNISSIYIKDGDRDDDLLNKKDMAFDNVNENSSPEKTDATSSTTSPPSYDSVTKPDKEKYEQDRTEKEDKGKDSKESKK
Outline: as §1

Q: Which results are given for `Cc1cc2c(cc1S(=O)(=O)Nc1cccc(F)n1)oc(=O)n2[C@H](C)c1cccc(C#CCN)c1` [Ex21-23, 3-{(1R)-1-[3-(3-aminoprop-1-yn-1-yl)phenyl]ethyl}-N-(6-fluoropyridin-2-yl)-5-methyl-2-oxo-2,3-dihydro-1,3-benzoxazole-6-sulfonamide]?
A: ratio of Nav 1.5:Nav 1.7 potency (human Nav1.5): 251; IC50 (human Nav1.7): 90 nM

Q: How did the “ratio of Nav 1.5:Nav 1.7 potency” value (human Nav1.5) turn out when `C[C@H](c1ccccc1C#C[C@H]1CCCC[C@H]1N)n1c(=O)oc2cc(S(=O)(=O)Nc3cccc(F)n3)c(F)cc21` [Ex8-3, 3-[(1R)-1-(2-{[(1R,2R)-2-aminocyclohexyl]ethynyl}phenyl)ethyl]-5-fluoro-N-(6-fluoropyridin-2-yl)-2-oxo-2,3-dihydro-1,3-benzoxazole-6-sulfonamide] was run?
A: 2000

Q: What about the IC50 (human Nav1.7) of the same compound?
A: 14 nM

Q: What does the source list for `C[C@H](c1ccccc1C#CCN1CCCC1)n1c(=O)oc2cc(S(=O)(=O)Nc3cccc(F)n3)c(F)cc21` [Ex8-2, 5-fluoro-N-(6-fluoropyridin-2-yl)-2-oxo-3-{(1R)-1-[2-(3-pyrrolidin-1-ylprop-1-yn-1-yl)phenyl]ethyl}-2,3-dihydro-1,3-benzoxazole-6-sulfonamide]?
A: ratio of Nav 1.5:Nav 1.7 potency (human Nav1.5): 23; IC50 (human Nav1.7): 434 nM

Q: Which “ratio of Nav 1.5:Nav 1.7 potency” value (human Nav1.5) does the source give for `C[C@H](c1cccc2c1CNCC2)n1c(=O)oc2cc(S(=O)(=O)Nc3cccc(F)n3)ccc21.Cl` [Ex2-5, (R)—N-(6-fluoropyridin-2-yl)-2-oxo-3-(1-(1,2,3,4-tetrahydroisoquinolin-8-yl)ethyl)-2,3-dihydrobenzo[d]oxazole-6-sulfonamide hydrochloride] here?
A: 316

Q: What about the IC50 (human Nav1.7) of the same compound?
A: 152 nM

Q: For `C[C@H](c1ccccc1N1CCNCC1)n1c(=O)oc2cc(S(=O)(=O)Nc3cccc(F)n3)c(F)cc21` [Ex23-1, 5-fluoro-N-(6-fluoropyridin-2-yl)-2-oxo-3-{(1R)-1-[2-(piperazin-1-yl)phenyl]ethyl}-2,3-dihydro-1,3-benzoxazole-6-sulfonamide], which “ratio of Nav 1.5:Nav 1.7 potency” value (human Nav1.5) is on record?
A: 200

Q: And the IC50 (human Nav1.7)?
A: 150 nM

Q: Which results are given for `C[C@H](c1cccc(C2=CCCNC2)c1)n1c(=O)oc2cc(S(=O)(=O)Nc3cccc(F)n3)c(F)cc21` [Ex7-11, 5-fluoro-N-(6-fluoropyridin-2-yl)-2-oxo-3-{(1R)-1-[3-(1,2,5,6-tetrahydropyridin-3-yl)phenyl]ethyl}-2,3-dihydro-1,3-benzoxazole-6-sulfonamide]?
A: ratio of Nav 1.5:Nav 1.7 potency (human Nav1.5): 461; IC50 (human Nav1.7): 65 nM
